Data on 15 molecules can be found in US11230548B2, “Prodrugs of fumarates and their use in treating various diseases” (Alkermes Pharma Ireland Limited, priority 2013, dated 2022).

Each structure is given as a SMILES string. Structures can show the parent of a compound that is named as a salt.

This data set is described as follows: Aqueous chemical stability in phosphate buffer (HPLC, first-order decay). The format is physicochemical. The following applies: half-life of the compound in buffer phosphate (100 mM), pH 8, 37° C., half-lives >360 min estimated from initial slope at low conversion (<10%). On the procedure: Stock solutions of the compounds in acetonitrile or acetonitrile/methanol were prepared at 20 mg/mL. and 20 μL, spiked into 3 mL of buffer phosphate (100 mM) and incubated at 37° C. Aliquots (50 μL) were sampled at different time points and diluted 20 fold with ammonium formate (pH 3.5)/acetonitrile. The diluted samples were analyzed by HPLC. The peak areas corresponding to the compounds were plotted against time and the data were fitted to a first-order mono-exponential decay where the rate constant and the half-life were determined (Table 2).

As to `COC(=O)/C=C/C(=O)OC(C)CN(C)C` (stereo not drawn) [Compound 6, 1-(dimethylamino)propan-2-yl methyl fumarate hydrochloride], the “pH 8 (t½, min)” value is 2.0 min.
With `COC(=O)/C=C/C(=O)OCCN1CCSCC1` [Compound 7, Methyl (2-thiomorpholinoethyl) fumarate hydrochloride], the “pH 8 (t½, min)” value is 26.0 min.
On to `COC(=O)/C=C/C(=O)OCCNc1ccccc1` [Compound 8, Methyl (2-(phenylamino)ethyl) fumarate hydrochloride], for which the “pH 8 (t½, min)” value is listed as 36.0 min.
With `COC(=O)/C=C/C(=O)OCC(C)(C)N(C)C` [Compound 9, 2-(dimethylamino)-2-methylpropyl methyl fumarate hydrochloride], the “pH 8 (t½, min)” value is recorded as 7.0 min.
`COC(=O)/C=C/C(=O)OCCS(C)(=O)=O` [Compound 10, Methyl (2-(methyl sulfonyl)ethyl) fumarate]: the “pH 8 (t½, min)” value is 67.0 min.
For the molecule `COC(=O)/C=C/C(=O)OCCN1CCS(=O)(=O)CC1` [Compound 11, 2-(1,1-dioxidothiomorpholino)ethyl methyl fumarate hydrochloride], the “pH 8 (t½, min)” value is >240 min.
On to `COC(=O)/C=C/C(=O)OCCN(C)c1ccccc1` [Compound 12, Methyl (2-(methyl(phenyl)amino)ethyl) fumarate hydrochloride], for which the “pH 8 (t½, min)” value is 396 min.
For `COC(=O)/C=C/C(=O)OCCN1C(=O)CCC1=O` [Compound 14, 2-(2,5-dioxopyrrolidin-1-yl)ethyl methyl fumarate], the “pH 8 (t½, min)” value is listed as 144 min.
Regarding `COC(=O)/C=C/C(=O)OCCN1CCCCC1` [Compound 15, Methyl (2-(piperidin-1-yl)ethyl) fumarate hydrochloride], the “pH 8 (t½, min)” value was 3.0 min.
Consider `COC(=O)/C=C/C(=O)OCCN1CCOCC1` [Compound 16, Methyl (2-morpholinoethyl) fumarate hydrochloride], for which the “pH 8 (t½, min)” value is given as 20.0 min.
As for `COC(=O)/C=C/C(=O)OCCN1CCC2(CC1)OCCO2` [Compound 17, 2-(1,4-dioxa-8-azaspiro[4.5]decan-8-yl)ethyl methyl fumarate hydrochloride], the “pH 8 (t½, min)” value is recorded as 11.0 min.
Regarding `COC(=O)/C=C/C(=O)OCCN1CCCC1` [Compound 18, Methyl (2-(pyrrolidin-1-yl)ethyl) fumarate hydrochloride], the “pH 8 (t½, min)” value is 5.0 min.
With `COC(=O)/C=C/C(=O)OCCN(C)C` [Compound 19, 2-(dimethylamino)ethyl methyl fumarate hydrochloride] the figure was 6.0 min; with `CCN(CC)CCOC(=O)/C=C/C(=O)OC` [Compound 20, 2-(diethylamino)ethyl methyl fumarate hydrochloride], 5.0 min.
In the case of `CCN(CC)C(=O)COC(=O)/C=C/C(=O)OC` [Reference Compound A, 2-(diethylamino)-2-oxoethyl methyl fumarate, reference compound], the “pH 8 (t½, min)” value was 120 min.
